Results reported in patent US20080153758A1, “Compounds Which Inhibits Protein Prenylation E.G. Geranylgeransferse or Farnesyltransferase Inhibitors for Treating Parkinson's Disease” (priority 2004, published 2008).

Experiments:
FTase = FTase (Homo sapiens, UniProt P49354+P49356); details: read-out: FTase IC50; cited from earlier work
GGTase I = GGTase I (Homo sapiens, UniProt P49354+P53609); details: read-out: GGTase I / PGGTase-I IC50; cited from earlier work
[1] = cell-based assays (Law et al. 2000; Birkenkamp et al. 2004); cited from earlier work
mammary tumors = details: cited from earlier work
SH-SY5Y cells = assay: MTT cell viability of 6-OHDA treated SH-SY5Y cells; assay type: cell-based, human
Procedure: To test whether inhibition of Ras farnesylation could protect SH-SY5Y cells against 6-OHDA induced oxidative stress, a Ras farnesyltransferase inhibitor, L-744,832, was used in 6-OHDA treated SH-SY5Y cells.
SH-SY5Y cells were plated in 24 well plates (ATGC, France) at the initial density of 3*10^5 cells/well. After 24 hours, cells were pretreated with L-744,832 for 6 hours at concentrations ranging from 20 nM to 40 μM. Then, 6-OHDA (Sigma) diluted in PBS was added to the wells at the concentration of 50 μM. After 17 h incubation, an MTT assay was conducted to reveal cell viability, which was measured as normalized optical densities values (treated cells/untreated control cells), where a value of 1 represents 100% neuronal survival and a value of 0.6 represents 60% survival.

In the case of `Cn1cncc1C(N)(c1ccc(Cl)cc1)c1ccc2c(c1)c(-c1cccc(Cl)c1)cc(=O)n2C` (stereo not drawn) [R115777, 6-[Amino(4-chlorophenyl)-1-methyl-1H-imidazol-5-ylmethyl]-4-(3-chlorophenyl)-1-methyl-2(1H)-quinolinone], the IC50 (FTase) is listed as 0.86 nM.
In the case of `COC(=O)[C@H](CCSC)N(C(=O)c1ccccc1)C1CCN(C(=O)[C@@H](N)CS)CC1` [Methyl N-benzoyl-N-(piperidin-4-yl-N-(R)-cysteinyl)-(S) methioninate], the IC50 (FTase) is given as 20 nM.
For `CSCC[C@H](NC(=O)c1ccc(NC[C@@H](N)CS)cc1)C(=O)O` [FTI-249], the IC50 (FTase) is given as 50 nM.
For `C=C(CCC12OC(C(=O)O)C(O)(C(=O)O)C(C(=O)O)(O1)C(OC(=O)C=CC(C)CC(C)CC)C2O)C(OC(C)=O)C(C)Cc1ccccc1` [Zaragozic acid, L-erythro-L-Glycero-D-altro-7-trideculo-7,4-furanosonic acid, 2,7-anhydro-3,4-di-C-carboxy-8,9,10,12,13-pentadeoxy-10-methylene-12-(phenylmethyl)-,11-acetate 5-(4,6-dimethyl-2-octenoate), [5(2E,4S,6S),7S]], the IC50 (FTase) is given as 50 nM.
In the case of `CSCC[C@H](NC(=O)[C@@H](NC(=O)[C@@H](NC(=O)CCP(=O)(O)C/C=C(\C)CC/C=C(\C)CCC=C(C)C)C(C)C)C(C)C)C(=O)O` [BMS-186511], the IC50 (FTase) is listed as 10 nM.
For `CSCCC(NC(=O)C(C=CC(C=CC(N)CS)C(C)C)Cc1ccccc1)C(=O)O` (stereo not drawn) [B956], the IC50 (FTase) is listed as 11 nM.
For `CCC(C)C(COC(Cc1ccccc1)C(=O)NC(CCS(C)(=O)=O)C(=O)O)NCC(N)CS` [L-739,750], the IC50 (FTase) is given as 1.8 nM.
For `CC(C)C[C@H](NC(=O)c1ccc(NC[C@@H](N)CS)cc1-c1ccccc1)C(=O)O` [GGTI-287], the IC50 (GGTase I) is given as 5 nM.
In the case of `CC(=O)N(c1ccc(C)cc1)c1ccc(NC(=O)CCCCc2ccccc2)cc1C(=O)c1ccccc1`, the IC50 (FTase) is listed as 390 nM.
In the case of `COC(=O)[C@H](CCSC)NC(=O)c1ccc(NC[C@@H](N)CS)cc1-c1ccccc1` [FTI-277], the IC50 (FTase) is given as 100 nM.
For `O=[N+]([O-])[C@H]1C(c2ccccc2Br)CCN(Cc2cccnc2)[C@@H]1c1ccc(O)c(O)c1` (single isomer, unassigned; (+)) [(+)-4-(2-Bromophenyl)-2-(3,4-dihydroxyphenyl)-3-nitro-1-(3-pyridylmethyl)piperidine], the IC50 (FTase) is listed as 1.9 nM.
In the case of `CSCC[C@H](NC(=O)CN1C[C@H](N(C)C(=O)[C@H](N)CS)N=C(c2ccccc2)c2ccccc21)C(=O)O` [BZA-2B], the IC50 (FTase) is given as 0.85 nM.
In the case of `C[C@H]([C@H](C/C=C/c1nc2ccccc2o1)c1ccc2c(c1)OCO2)N(Cc1ccc2ccccc2c1)C(=O)[C@H]1OC(C(=O)O)(C(=O)O)O[C@@H]1C(=O)O` [J-104,135], the IC50 (FTase) is listed as 3.9 nM.
In the case of `CC(C)C[C@H](NC(=O)CN1C[C@H](N(C)C(=O)[C@H](N)CS)N=C(c2ccccc2)c2ccccc21)C(=O)O` [BZA-4B], the IC50 (FTase) is listed as 1.3 nM.
For `CSCC[C@H](NC(=O)c1ccc(NC(=O)[C@@H](N)CS)cc1)C(=O)O` [FTI-232, Cys-4-ABA-Met], the IC50 (FTase) is given as 50 nM.
In the case of `CSCC[C@@H](NC(=O)[C@H]1Cc2ccccc2CN1C(=O)[C@@H](NCCc1c[nH]cn1)C(C)C)C(=O)O` (relative stereo) [BMS-193269, (R*)-N-[[1,2,3,4-Tetrahydro-2-[N-[2-(1H-imidazol-4-yl)ethyl]-L-valyl]-3-isoquinolinyl]carbonyl]-L-methionine], the IC50 (FTase) is given as 0.79 nM.
In the case of `C[C@H]([C@H](C/C=C/c1nc2ccccc2o1)c1ccc2c(c1)OCO2)N(Cc1ccc2ccccc2c1)C(=O)[C@H]1OC(C(=O)O)(C(=O)O)O[C@@H]1C(=O)O` [J-104,134], the IC50 (FTase) is listed as 5 nM.
For `CC[C@H](C)[C@@H](CO[C@@H](Cc1ccccc1)C(=O)N[C@@H](CCS(C)(=O)=O)C(=O)OC(C)C)NC[C@@H](N)CS` [L-744,832, (2S)-2-[[(2S)-2-[[(2S,3S)-2-[[(2R)-2-Amino-3-mercaptopropyl]amino]-3-methylpentyl]oxy]-1-oxo-3-phenylpropyl]amino]-4-(methylsulfonyl)-butanoic acid 1-methylethyl ester], the reported active concentration [1] is given as 25 to 60 µM, the “p70s6k phosphorylation in mammary tumors” value (mammary tumors; in vivo) is given as “inhibits” and the tumor regression (mammary tumors; transgenic mice) is given as “induces tumor regression”. For the same compound, the “toxicity for SH-SY5Y cells” value (SH-SY5Y cells; SH-SY5Y cells) was “non toxic”, the survival ratio (SH-SY5Y cells; SH-SY5Y, 6 h pretreatment with L-744,832 (20 nM to 40 μM), 6-OHDA 50 μM, 17 h, MTT, control 38%) was 53% and the “protective effect against cell death induced by ROS (in words)” value (SH-SY5Y cells; overnight treatment with 6-OHDA, FIG. 1) was “significant protective effect”. It also gave a protective effect (SH-SY5Y cells; overnight treatment with 6-OHDA, SH-SY5Y, MTT) of 24%.
